Laboratory results: US7223773B2, “4-oxoquinolizine antibacterial agent having 2-pyridone skeleton as partial structure” (Salo Pharmaceutical Co., Ltd., priority 2001, dated 2007)
In brackets after ≈: the same amount, converted by molar mass. Read-outs that look alike come from different tables or passages of the source.

Tests used:
Type in all cases: cell-based
[1] = tested on: Bacillus subtilis JCM 2499; assay: in vitro antibacterial activity, agar plate dilution method (MIC); settings: JCM2499, read-out: Antimicrobial spectrum MIC
Experimental: (§1) The in vitro antibacterial activities of the compounds provided by the present invention were tested by a standard method of Chemotherapy Society of Japan, i.e. an agar plate dilution method disclosed in CHEMOTHERAPY Vol. 29, pages 76–79, 1981, and the activities of them on anaerobic bacteria were tested by a method disclosed in CHEMOTHERAPY Vol. 27, 559–590, 1979. The results were shown in terms of the minimum inhibition concentration (MIC, μg/ml) for the growth of the bacteria.

[2] = tested on: Branhamella catarrhalis IID 5233; assay: as above; settings: Moraxella catarrhalis, IID5233, read-out: Antimicrobial spectrum MIC
Experimental: as §1

[3] = tested on: Enterococcus faecalis CSJ 1212; assay: as above; settings: CSJ1212, read-out: Antimicrobial spectrum MIC
Experimental: as §1

[4] = tested on: Enterococcus faecalis RIMD 3116001; assay: as above; settings: RIMD3116001, read-out: Antimicrobial spectrum MIC
Experimental: as §1

[5] = tested on: Escherichia coli IFO 12734; assay: as above; settings: IFO12734, read-out: Antimicrobial spectrum MIC
Experimental: as §1

[6] = tested on: Haemophilus influenzae IID 984; assay: as above; settings: IID984, read-out: Antimicrobial spectrum MIC
Experimental: as §1

[7] = tested on: Klebsiella pneumoniae IID 865; assay: as above; settings: IID865, read-out: Antimicrobial spectrum MIC
Experimental: as §1

[8] = tested on: Micrococcus luteus KI 3122; assay: as above; settings: KI3122, read-out: Antimicrobial spectrum MIC
Experimental: as §1

[9] = tested on: Pseudomonas aeruginosa CSJ 1853; assay: as above; settings: CSJ1853, read-out: Antimicrobial spectrum MIC
Experimental: as §1

[10] = tested on: Staphylococcus aureus Clin-211(MRSA); assay: as above; settings: read-out: Antimicrobial spectrum MIC
Experimental: as §1

[11] = tested on: Staphylococcus aureus IFO 13276; assay: as above; settings: IFO13276, read-out: Antimicrobial spectrum MIC
Experimental: as §1

[12] = tested on: Staphylococcus aureus IID 803(Smith); assay: as above; settings: IID803, read-out: Antimicrobial spectrum MIC
Experimental: as §1

[13] = tested on: Staphylococcus aureus JCM 2874; assay: as above; settings: JCM2874, read-out: Antimicrobial spectrum MIC
Experimental: as §1

[14] = tested on: Staphylococcus epidermidis IFO 12993; assay: as above; settings: IFO12993, read-out: Antimicrobial spectrum MIC
Experimental: as §1

[15] = tested on: Streptococcus pneumoniae IID 553; assay: as above; settings: IID553, read-out: Antimicrobial spectrum MIC
Experimental: as §1

[16] = tested on: Bacteroides fragilis GAI 0675; assay: in vitro antibacterial activity on anaerobic bacteria (MIC); settings: GAI0675; Bacteroides fragilis GAI 0675, anaerobic; read-out: Antimicrobial spectrum MIC
Experimental: as §1

[17] = tested on: Bacteroides thetaiotaomicron ATCC 29741; assay: as above
Experimental: as §1

[18] = tested on: Propionibacterium acnes JCM 6425; assay: as above; settings: Cutibacterium acnes, JCM6425; Propionibacterium acnes JCM 6425, anaerobic; read-out: Antimicrobial spectrum MIC
Experimental: as §1

[19] = ATCC29741, Bacteroides thetaiotaomicron ATCC 29741, anaerobic, read-out: Antimicrobial spectrum MIC

| MIC [1] [µg/mL] | MIC [2] [µg/mL] | MIC [3] [µg/mL] | MIC [4] [µg/mL] | MIC [5] [µg/mL] | MIC [6] [µg/mL] | MIC [7] [µg/mL] | MIC [8] [µg/mL] | MIC [9] [µg/mL] | MIC [10] [µg/mL] | MIC [11] [µg/mL] | MIC [12] [µg/mL] | MIC [13] [µg/mL] | MIC [14] [µg/mL] | MIC [15] [µg/mL] | MIC [16] [µg/mL] | MIC [17, 19] [µg/mL] | MIC [18] [µg/mL] | SMILES | MIC ([17]; Bacteroides thetaiotaomicron, ATCC29741, read-out: Antimicrobial spectrum MIC) [µg/mL] |
| --- | --- | --- | --- | --- | --- | --- | --- | --- | --- | --- | --- | --- | --- | --- | --- | --- | --- | --- | --- |
| ≤ 0.004 | 0.063 (≈ 0.181 µM) | 0.5 (≈ 1.44 µM) | 1 (≈ 2.87 µM) | 0.125 (≈ 0.359 µM) | 0.125 (≈ 0.359 µM) | 0.016 (≈ 0.0459 µM) | 0.125 (≈ 0.359 µM) | 1 (≈ 2.87 µM) | 0.063 (≈ 0.181 µM) | 0.008 (≈ 0.023 µM) | 0.008 (≈ 0.023 µM) | 0.008 (≈ 0.023 µM) | 0.016 (≈ 0.0459 µM) | 1 (≈ 2.87 µM) | 0.063 (≈ 0.181 µM) | 0.25 (≈ 0.718 µM) | 0.031 (≈ 0.089 µM) | Cc1ccc(-c2ccn3c(=O)c(C(=O)O)cc(C4CC4)c3c2C)cc1N [Example 63, 8-(3-Amino-4-methylphenyl)-1-cyclopropyl-9-methyl-4-oxo-4H-quinolizine-3-carboxylic acid] |  |
| 0.031 (≈ 0.0823 µM) | 0.125 (≈ 0.332 µM) | 0.5 (≈ 1.33 µM) | 1 (≈ 2.66 µM) | 0.5 (≈ 1.33 µM) | 0.063 (≈ 0.167 µM) | 0.031 (≈ 0.0823 µM) | 1 (≈ 2.66 µM) | 1 (≈ 2.66 µM) | 1 (≈ 2.66 µM) | 0.063 (≈ 0.167 µM) | 0.063 (≈ 0.167 µM) | 0.125 (≈ 0.332 µM) | 0.125 (≈ 0.332 µM) | 0.5 (≈ 1.33 µM) | 0.5 (≈ 1.33 µM) | 1 (≈ 2.66 µM) | 0.5 (≈ 1.33 µM) | Cc1c(-c2cccc(CN(C)C)c2)ccn2c(=O)c(C(=O)O)cc(C3CC3)c12 [Example 117, 1-Cyclopropyl-8-(3-dimethylaminomethylphenyl)-9-methyl-4-oxo-4H-quinolizine-3-carboxylic acid] |  |
| 0.016 (≈ 0.0383 µM) | 0.25 (≈ 0.599 µM) | 0.5 (≈ 1.2 µM) | 1 (≈ 2.4 µM) | 1 (≈ 2.4 µM) | 0.25 (≈ 0.599 µM) | 0.063 (≈ 0.151 µM) | 1 (≈ 2.4 µM) | 4 (≈ 9.58 µM) | 1 (≈ 2.4 µM) | 0.063 (≈ 0.151 µM) | 0.063 (≈ 0.151 µM) | 0.063 (≈ 0.151 µM) | 0.125 (≈ 0.299 µM) | 0.5 (≈ 1.2 µM) | 1 (≈ 2.4 µM) | 2 (≈ 4.79 µM) | 2 (≈ 4.79 µM) | Cc1c(-c2cccc(CN3CCNCC3)c2)ccn2c(=O)c(C(=O)O)cc(C3CC3)c12 [Example 119, 1-Cyclopropyl-9-methyl-4-oxo-8-(3-piperazin-1-ylmethylphenyl)-4H-quinolizine-3-carboxylic acid] |  |

Further lines, the compound ahead of its results:

| SMILES | MIC [1] [µg/mL] | MIC [2] [µg/mL] | MIC [3] [µg/mL] | MIC [4] [µg/mL] | MIC [5] [µg/mL] | MIC [6] [µg/mL] | MIC [7] [µg/mL] | MIC [8] [µg/mL] | MIC [9] [µg/mL] | MIC [10] [µg/mL] | MIC [11] [µg/mL] | MIC [12] [µg/mL] | MIC [13] [µg/mL] | MIC [14] [µg/mL] | MIC [15] [µg/mL] | MIC [16] [µg/mL] | MIC [17, 19] [µg/mL] | MIC [18] [µg/mL] | MIC ([17]; Bacteroides thetaiotaomicron, ATCC29741, read-out: Antimicrobial spectrum MIC) [µg/mL] |
| --- | --- | --- | --- | --- | --- | --- | --- | --- | --- | --- | --- | --- | --- | --- | --- | --- | --- | --- | --- |
| Cc1c(-c2ccc(N)nc2)ccn2c(=O)c(C(=O)O)cc(C3CC3)c12 [Example 89, 8-(6-Aminopyridin-3-yl)-1-cyclopropyl-9-methyl-4-oxo-4H-quinolizine-3-carboxylic acid] | 0.016 (≈ 0.0477 µM) | 0.125 (≈ 0.373 µM) | 0.25 (≈ 0.745 µM) | 0.5 (≈ 1.49 µM) | 0.25 (≈ 0.745 µM) | 0.031 (≈ 0.0924 µM) | 0.016 (≈ 0.0477 µM) | 0.5 (≈ 1.49 µM) | 1 (≈ 2.98 µM) | 0.5 (≈ 1.49 µM) | 0.031 (≈ 0.0924 µM) | 0.063 (≈ 0.188 µM) | 0.063 (≈ 0.188 µM) | 0.125 (≈ 0.373 µM) | 0.5 (≈ 1.49 µM) | 0.5 (≈ 1.49 µM) | 1 (≈ 2.98 µM) | 0.5 (≈ 1.49 µM) |  |
| COc1ccc(-c2ccn3c(=O)c(C(=O)O)cc(C4CC4)c3c2C)cc1CN [Example 121, 8-(3-Aminomethyl-4-methoxyphenyl)-1-cyclopropyl-9-methyl-4-oxo-4H-quinolizine-3-carboxylic acid] | ≤ 0.004 | 0.063 (≈ 0.166 µM) | 0.031 (≈ 0.0819 µM) | 0.063 (≈ 0.166 µM) | 0.063 (≈ 0.166 µM) | 0.008 (≈ 0.0211 µM) | ≤ 0.004 | 0.125 (≈ 0.33 µM) | 0.5 (≈ 1.32 µM) | 0.25 (≈ 0.661 µM) | 0.016 (≈ 0.0423 µM) | 0.016 (≈ 0.0423 µM) | 0.016 (≈ 0.0423 µM) | 0.031 (≈ 0.0819 µM) | 0.031 (≈ 0.0819 µM) | 0.5 (≈ 1.32 µM) | 4 (≈ 10.6 µM) | 0.25 (≈ 0.661 µM) |  |
| C[C@H]1COc2c(N3CCN(C)CC3)c(F)cc3c(=O)c(C(=O)O)cn1c23 [Levofloxacin, reference compound] | 0.031 (≈ 0.0858 µM) | 0.031 (≈ 0.0858 µM) | 0.5 (≈ 1.38 µM) | 1 (≈ 2.77 µM) | 0.031 (≈ 0.0858 µM) | 0.016 (≈ 0.0443 µM) | 0.008 (≈ 0.0221 µM) | 1 (≈ 2.77 µM) | 0.5 (≈ 1.38 µM) | 4 (≈ 11.1 µM) | 0.125 (≈ 0.346 µM) | 0.125 (≈ 0.346 µM) | 0.25 (≈ 0.692 µM) | 0.25 (≈ 0.692 µM) | 0.5 (≈ 1.38 µM) | 0.5 (≈ 1.38 µM) |  | 0.25 (≈ 0.692 µM) | 4 (≈ 11.1 µM) |
